Experimental data published in patent publication US10221163B2 (priority 2015, dated 2019).
Where two headings read alike, the source gives them in different places.

Experiments:
IMP-1 = IMP-1 (Serratia marcescens, UniProt P52699); assay: biochemical; type: biochemical; conditions: fluorescence assay, CCF2-FA substrate, 2 pM enzyme, 2 hours at 25° C.; read-out: IMP-1 IC50
Outline: (§1)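 Two-hour, 25° C incubation of enzyme with inhibitor and CCF2-FA (7-hydroxycoumarin–cephalosporin–fluorescein). Fluorescence read-out; IC50 via 4-parameter fit.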

NDM-1 = NDM-1 (Klebsiella pneumoniae, UniProt C7C422); assay: biochemical; type: biochemical; conditions: fluorescence assay, CCF2-FA substrate, 1 pM enzyme, 2 hours at 25° C.; read-out: NDM-1 IC50
Outline: as §1

VIM-1 = VIM-1 (Pseudomonas aeruginosa (strain ATCC 15692 / DSM 22644 / CIP 104116 / JCM 14847 / LMG 12228 / 1C / PRS 101 / PAO1), UniProt A0A0F7KYQ8); assay: biochemical; conditions: CCF2-FA substrate, 30 pM enzyme, 2 hours at 25° C.
Outline: as §1

[1] = system: Escherichia coli expressing NDM-1 (CLB30005, CLB30016); type: cell-based; conditions: NDM-1 strain, with imipenem 1 μg/ml, 95% inhibition of growth
Outline: (§2)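 Clinical strains grown overnight on blood agar at 35°C, colonies suspended in saline, diluted 1:100 into 1.1×CAMHB. Test compound titrated with imipenem at 1 μg/ml; incubated 22–24 h at 35°C, growth read by absorbance.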

[2] = system: Klebsiella pneumoniae expressing VIM-1 (IHMA599644); type: cell-based; conditions: VIM-1 strain IHMA599644, with imipenem 1 μg/ml, 95% inhibition of growth
Outline: as §2

[3] = system: Serratia marcescens expressing IMP-1 (CL5741); type: cell-based; conditions: IMP-1 strain CL5741, with imipenem 1 μg/ml, 95% inhibition of growth
Outline: as §2

[4] = system: Pseudomonas aeruginosa efflux+ (MB9798), IMP-1; type: cell-based; conditions: concentration restoring susceptibility to imipenem at 2 μg/mL in the presence of a class A, C, D serine β-lactamase inhibitor closely related to relebactam
Outline: (§3)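 P. aeruginosa PAO1-derived IMP-1 strains, efflux+ MB9798 and efflux− MB9799, tested by standard microbroth MIC with imipenem and/or ceftazidime fixed, usually at CLSI breakpoint, plus fixed class A/C β-lactamase inhibitor against AmpC. Inhibitor titrated; concentration restoring susceptibility recorded; MB9798/MB9799 fold difference indicates efflux.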

[5] = system: Pseudomonas aeruginosa efflux− (MB9799), IMP-1; type: cell-based; conditions: concentration restoring susceptibility to imipenem at 2 μg/mL in the presence of a class A, C, D serine β-lactamase inhibitor closely related to relebactam
Outline: as §3

[6] = system: Pseudomonas aeruginosa MB9798 vs MB9799; conditions: ratio MITC95 PA_9798/MITC95 PA_9799
Outline: as §3

[7] = fluorescence assay, read-out: VIM-1 IC50

IMP-1, sequence (P52699 whole entry, looked up, species assumed): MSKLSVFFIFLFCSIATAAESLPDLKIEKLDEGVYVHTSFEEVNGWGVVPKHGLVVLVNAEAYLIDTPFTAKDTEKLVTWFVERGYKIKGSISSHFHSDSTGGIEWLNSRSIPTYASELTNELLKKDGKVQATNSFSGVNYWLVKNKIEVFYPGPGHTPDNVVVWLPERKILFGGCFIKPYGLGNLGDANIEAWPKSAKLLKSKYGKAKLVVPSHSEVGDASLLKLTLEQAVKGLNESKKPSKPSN
NDM-1, sequence (C7C422 whole entry, looked up, species assumed): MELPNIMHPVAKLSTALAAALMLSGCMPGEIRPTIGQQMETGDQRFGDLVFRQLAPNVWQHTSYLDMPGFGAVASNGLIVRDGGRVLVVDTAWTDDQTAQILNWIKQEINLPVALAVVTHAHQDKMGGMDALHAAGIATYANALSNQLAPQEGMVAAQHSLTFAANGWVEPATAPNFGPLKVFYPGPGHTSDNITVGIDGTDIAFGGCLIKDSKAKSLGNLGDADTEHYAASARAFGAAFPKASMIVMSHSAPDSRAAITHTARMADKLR

Row | SMILES | IC50 (IMP-1) [nM] | IC50 (NDM-1) [nM] | IC50 (VIM-1; VIM-1 IC50, fluorescence assay) [nM] | Escherichia coli MITC95 [1] [µM] | Klebsiella pneumoniae MITC95 [2] [µM] | Serratia marcescens MITC95 [3] [µM] | P. aeruginosa expressing IMP-1, efflux + (MB9798) MITC95 [4] [µM] | P. aeruginosa expressing IMP-1, efflux − (MB9799) MITC95 [5] [µM] | Efflux ratio [6] | IC50 (VIM-1; [7]) [nM]
1 | NCCNS(=O)(=O)c1ccc(C2CCC[C@H](N)C2)c(-c2nn[nH]n2)c1S(N)(=O)=O (stereo partly drawn) [Example 342, 4-((3S)-3-aminocyclohexyl)-N1-(2-aminoethyl)-3-(2H-tetrazol-5-yl)benzene-1,2-disulfonamide] | 88.7 | 32.7 | 5.31 | 1.563 | 1.563 | 3.125 | 25 | 6.25 | 4.00 | 
2 | NCCNS(=O)(=O)c1ccc(-c2cccc3[nH]c(CN)nc23)c(-c2nn[nH]n2)c1S(N)(=O)=O [Example 343] | 1.37 | 0.195 |  | 0.7813 | 0.7813 | 0.7813 | 0.7813 | 0.7813 | 1.00 | 0.207
3 | NCCNS(=O)(=O)c1ccc(-c2cccc3sc(CN)nc23)c(-c2nn[nH]n2)c1S(N)(=O)=O [Example 345, N^1-(2-aminoethyl)-4-(2-(aminomethyl)benzo[d]thiazol-4-yl)-3-(2H -tetrazol-5-yl)benzene-1,2-disulfonamide] | 0.676 | 0.193 |  | 0.5859 | 0.7813 | 0.7813 | 0.7813 | 0.7813 | 1.00 | 0.129
4 | NCCNS(=O)(=O)c1ccc(-c2cccc(C(=O)NC[C@H](O)CN)c2)c(-c2nn[nH]n2)c1S(N)(=O)=O [Example 346] | 3.65 | 1.49 | 0.467 | 1.563 | 1.563 | 1.563 | 1.563 | 0.7813 | 2.00 | 
5 | NCCNS(=O)(=O)c1ccc(-c2ccc3ncn(CCN)c3c2)c(-c2nn[nH]n2)c1S(N)(=O)=O [Example 348, N^1-(2-aminoethyl)-4-(1-(2-aminoethyl)-1H-benzo[d]imidazol-6-yl)-3-(2H-tetrazol-5-yl)benzene-1,2-disulfonamide] | 3.33 | 1.47 |  | 1.563 | 1.563 | 1.563 | 3.125 | 0.7813 | 4.00 | 0.536
6 | NCCNS(=O)(=O)c1ccc(-c2cccc(NC[C@@H](N)CO)c2)c(-c2nn[nH]n2)c1S(N)(=O)=O [Example 349, (R)-3′-((2-amino-3-hydroxypropyl)amino)-N4-(2-aminoethyl)-2-(2H-tetrazol-5-yl)-[1,1′-biphenyl]-3,4-disulfonamide] | 5.65 | 1.62 |  | 1.563 | 1.563 | 1.563 | 1.563 | 0.7813 | 2.00 | 0.433
7 | NCCNS(=O)(=O)c1ccc(-c2cccc(NC[C@H](N)CO)c2)c(-c2nn[nH]n2)c1S(N)(=O)=O [Example 350, (S)-3′-((2-amino-3-hydroxypropyl)amino)-N4-(2-aminoethyl)-2-(2H-tetrazol-5-yl)-[1,1′-biphenyl]-3,4-disulfonamide] | 4.4 | 1.72 |  | 0.7813 | 0.7813 | 0.7813 | 0.7813 | 0.7813 | 1.00 | 0.412
8 | NCCNS(=O)(=O)c1ccc(-c2cccc(NC[C@H](O)CN)c2)c(-c2nn[nH]n2)c1S(N)(=O)=O [Example 351, (R)-3′-((3-amino-2-hydroxypropyl)amino)-N4-(2-aminoethyl)-2-(2H-tetrazol-5-yl)-[1,1′-biphenyl]-3,4-disulfonamide] | 3.55 | 1.36 | 0.453 | 0.7813 | 1.563 | 1.563 | 1.563 | 0.7813 | 2.00 | 
9 | NCCNS(=O)(=O)c1ccc(-c2cccc(NC[C@@H](O)CN)c2)c(-c2nn[nH]n2)c1S(N)(=O)=O [Example 352, (S)-3′-((3-amino-2-hydroxypropyl)amino)N4-(2-aminoethyl)-2-(2H-tetrazol-5-yl)-[1,1′-biphenyl]-3,4-disulfonamide] | 4.39 | 1.41 | 0.379 | 0.7813 | 1.563 | 1.563 | 1.563 | 0.7813 | 2.00 | 
10 | NCCNS(=O)(=O)c1ccc(-c2cccc(-c3c[nH]c(N)n3)c2)c(-c2nn[nH]n2)c1S(N)(=O)=O [Example 353, 3′-(2-amino-1H-imidazol-4-yl)-N4-(2-aminoethyl)-2-(2H-tetrazol-5-yl)-[1,1′-biphenyl]-3,4-disulfonamide] | 1.15 | 0.259 |  | 0.3906 | 1.563 | 0.7813 | 1.563 | 0.7813 | 2.00 | 0.571
11 | NCCNS(=O)(=O)c1ccc(-c2cccc(SCC(N)CO)c2)c(-c2nn[nH]n2)c1S(N)(=O)=O (stereo not drawn) [Example 354, 3′-((2-amino-3-hydroxypropyl)thio)-N4-(2-aminoethyl)-2-(2H-tetrazol-5-yl)-[1,1′-biphenyl]-3,4-disulfonamide] | 0.453 | 0.817 |  | 0.3906 | 0.7813 | 1.563 | 1.563 | 0.3906 | 4.00 | 0.108
